Test results taken from the NIST ThermoML archive (doi:10.1021/acs.jced.6b00888).
Numbers after ± are expanded uncertainties.

Assay: wn = mass fraction of the nth substance listed
Conditions: 101.3 kPa, Liquid, Vibrating tube method

Which results are given for `CN(C)CCO` [2-(N,N-dimethylamino)ethanol] + O?
mass density (293.15 K, w1 = 0.1): 994.8 ± 5.2 kg/m3; mass density (293.15 K, w1 = 0.2): 992.8 ± 5.2 kg/m3; mass density (293.15 K, w1 = 0.3): 990.8 ± 5.3 kg/m3; mass density (293.15 K, w1 = 0.49): 981.7 ± 5.5 kg/m3; mass density (293.15 K, w1 = 0.64): 963 ± 5.8 kg/m3; mass density (293.15 K, w1 = 0.69): 955.3 ± 6.4 kg/m3; mass density (293.15 K, w1 = 0.79): 935.1 ± 6.7 kg/m3; mass density (293.15 K, w1 = 0.9): 911.3 ± 7.2 kg/m3; mass density (293.15 K, w1 = 1): 882.2 ± 5.2 kg/m3; mass density (298.15 K, w1 = 0.1): 993.3 ± 5.2 kg/m3; mass density (298.15 K, w1 = 0.2): 990.8 ± 5.2 kg/m3; mass density (298.15 K, w1 = 0.3): 988.1 ± 5.3 kg/m3; mass density (298.15 K, w1 = 0.49): 978 ± 5.5 kg/m3; mass density (298.15 K, w1 = 0.64): 959 ± 5.8 kg/m3; mass density (298.15 K, w1 = 0.69): 951.3 ± 6.5 kg/m3; mass density (298.15 K, w1 = 0.79): 931.1 ± 6.7 kg/m3; mass density (298.15 K, w1 = 0.9): 906.9 ± 6.9 kg/m3; mass density (298.15 K, w1 = 1): 884 ± 5.2 kg/m3; mass density (303.15 K, w1 = 0.1): 991.6 ± 5.3 kg/m3; mass density (303.15 K, w1 = 0.2): 988.6 ± 5.3 kg/m3; mass density (303.15 K, w1 = 0.3): 985.2 ± 5.3 kg/m3; mass density (303.15 K, w1 = 0.49): 974.2 ± 5.5 kg/m3; mass density (303.15 K, w1 = 0.64): 954.9 ± 5.9 kg/m3; mass density (303.15 K, w1 = 0.69): 947.2 ± 6.5 kg/m3; mass density (303.15 K, w1 = 0.79): 926.9 ± 6.8 kg/m3; mass density (303.15 K, w1 = 0.9): 902.2 ± 6.9 kg/m3; mass density (303.15 K, w1 = 1): 879.8 ± 5.2 kg/m3; mass density (308.15 K, w1 = 0.1): 989.7 ± 5.3 kg/m3; mass density (308.15 K, w1 = 0.2): 986.2 ± 5.3 kg/m3; mass density (308.15 K, w1 = 0.3): 982.2 ± 5.3 kg/m3; mass density (308.15 K, w1 = 0.49): 970.4 ± 5.5 kg/m3; mass density (308.15 K, w1 = 0.64): 950.8 ± 5.9 kg/m3; mass density (308.15 K, w1 = 0.69): 943 ± 6.5 kg/m3; mass density (308.15 K, w1 = 0.79): 922.7 ± 6.8 kg/m3; mass density (308.15 K, w1 = 0.9): 897.9 ± 6.9 kg/m3; mass density (308.15 K, w1 = 1): 875.5 ± 5.2 kg/m3; mass density (313.15 K, w1 = 0.1): 987.6 ± 5.3 kg/m3; mass density (313.15 K, w1 = 0.2): 983.6 ± 5.3 kg/m3; mass density (313.15 K, w1 = 0.3): 979.1 ± 5.4 kg/m3; mass density (313.15 K, w1 = 0.49): 966.5 ± 5.5 kg/m3; mass density (313.15 K, w1 = 0.64): 946.6 ± 5.9 kg/m3; mass density (313.15 K, w1 = 0.69): 938.8 ± 6.5 kg/m3; mass density (313.15 K, w1 = 0.79): 918.5 ± 6.8 kg/m3; mass density (313.15 K, w1 = 0.9): 893.5 ± 6.9 kg/m3; mass density (313.15 K, w1 = 1): 871.2 ± 5.2 kg/m3; mass density (318.15 K, w1 = 0.1): 985.3 ± 5.3 kg/m3; mass density (318.15 K, w1 = 0.2): 980.9 ± 5.3 kg/m3; mass density (318.15 K, w1 = 0.3): 975.8 ± 5.4 kg/m3; mass density (318.15 K, w1 = 0.49): 962.6 ± 5.6 kg/m3; mass density (318.15 K, w1 = 0.64): 942.4 ± 5.9 kg/m3; mass density (318.15 K, w1 = 0.69): 934.5 ± 6.5 kg/m3; mass density (318.15 K, w1 = 0.79): 914.2 ± 6.8 kg/m3; mass density (318.15 K, w1 = 0.9): 889.1 ± 6.9 kg/m3; mass density (318.15 K, w1 = 1): 866.8 ± 5.2 kg/m3; mass density (323.15 K, w1 = 0.1): 982.9 ± 5.3 kg/m3; mass density (323.15 K, w1 = 0.2): 978.4 ± 5.3 kg/m3; mass density (323.15 K, w1 = 0.3): 972.5 ± 5.4 kg/m3; mass density (323.15 K, w1 = 0.49): 958.6 ± 5.6 kg/m3; mass density (323.15 K, w1 = 0.64): 938 ± 5.9 kg/m3; mass density (323.15 K, w1 = 0.69): 930.1 ± 6.5 kg/m3; mass density (323.15 K, w1 = 0.79): 909.8 ± 6.8 kg/m3; mass density (323.15 K, w1 = 0.9): 884 ± 6.9 kg/m3; mass density (323.15 K, w1 = 1): 862.4 ± 5.2 kg/m3; mass density (328.15 K, w1 = 0.1): 980.3 ± 5.3 kg/m3; mass density (328.15 K, w1 = 0.2): 975.1 ± 5.3 kg/m3; mass density (328.15 K, w1 = 0.3): 969.1 ± 5.4 kg/m3; mass density (328.15 K, w1 = 0.49): 954.5 ± 5.6 kg/m3; mass density (328.15 K, w1 = 0.64): 933.7 ± 5.9 kg/m3; mass density (328.15 K, w1 = 0.69): 925.7 ± 6.5 kg/m3; mass density (328.15 K, w1 = 0.79): 905.4 ± 6.8 kg/m3; mass density (328.15 K, w1 = 0.9): 879.3 ± 6.9 kg/m3; mass density (328.15 K, w1 = 1): 858 ± 5.2 kg/m3; mass density (333.15 K, w1 = 0.1): 977.6 ± 5.3 kg/m3; mass density (333.15 K, w1 = 0.2): 972 ± 5.4 kg/m3; mass density (333.15 K, w1 = 0.3): 965.5 ± 5.4 kg/m3; mass density (333.15 K, w1 = 0.49): 950.3 ± 5.6 kg/m3; mass density (333.15 K, w1 = 0.64): 929.2 ± 6 kg/m3; mass density (333.15 K, w1 = 0.69): 921.2 ± 6.5 kg/m3; mass density (333.15 K, w1 = 0.79): 900.9 ± 6.8 kg/m3; mass density (333.15 K, w1 = 0.9): 874.8 ± 6.9 kg/m3; mass density (333.15 K, w1 = 1): 853.5 ± 5.2 kg/m3; mass density (338.15 K, w1 = 0.1): 974.7 ± 5.4 kg/m3; mass density (338.15 K, w1 = 0.2): 968.8 ± 5.4 kg/m3; mass density (338.15 K, w1 = 0.3): 961.9 ± 5.5 kg/m3; mass density (338.15 K, w1 = 0.49): 946.1 ± 5.6 kg/m3; mass density (338.15 K, w1 = 0.64): 924.7 ± 6 kg/m3; mass density (338.15 K, w1 = 0.69): 916.7 ± 6.5 kg/m3; mass density (338.15 K, w1 = 0.79): 896.4 ± 6.8 kg/m3; mass density (338.15 K, w1 = 0.9): 870.4 ± 6.9 kg/m3; mass density (338.15 K, w1 = 1): 849 ± 5.2 kg/m3; mass density (343.15 K, w1 = 0.1): 971.7 ± 5.4 kg/m3; mass density (343.15 K, w1 = 0.2): 965.5 ± 5.5 kg/m3; mass density (343.15 K, w1 = 0.3): 958.2 ± 5.5 kg/m3; mass density (343.15 K, w1 = 0.49): 941.8 ± 5.7 kg/m3; mass density (343.15 K, w1 = 0.64): 920.2 ± 6 kg/m3; mass density (343.15 K, w1 = 0.69): 912.1 ± 6.5 kg/m3; mass density (343.15 K, w1 = 0.79): 891.8 ± 6.8 kg/m3; mass density (343.15 K, w1 = 0.9): 865.8 ± 6.9 kg/m3; mass density (343.15 K, w1 = 1): 844.4 ± 5.2 kg/m3
